Assay [1] relates to patients with hypercholesterolemia at high CV risk not adequately controlled with atorvastatin (20 mg or 40 mg). As to the kind of experiment: Example 2: randomized, double-blind trial, lipid efficacy of mAb316P add-on to atorvastatin vs EZE add-on, atorvastatin dose doubling or switch to rosuvastatin. The assay is classed as in vivo, human. In short, it runs like this: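 Patients on atorvastatin 20 or 40 mg randomized to mAb316P 75 mg SC Q2W (raised to 150 mg from week 12 per CV risk) or blinded comparators, over 24 weeks. Endpoint: percent change in calculated LDL-C (Friedewald; beta quantification if TG >400 mg/dL) from baseline to week 24.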

The conditions of assay [2]: as reported elsewhere; cited from earlier work.

For the compound `CC(C)c1nc(N(C)S(C)(=O)=O)nc(-c2ccc(F)cc2)c1/C=C/[C@@H](O)C[C@@H](O)CC(=O)O` [rosuvastatin, reference compound], the “LDL-C W24 % change from baseline, LS mean (SE)” value in assay [1] (ITT population, week 24, treatment arm as labelled) is recorded as −21.4%. Moreover, the “Calculated LDL-C LS mean (SE), % Change from Baseline” value in assay [1] (Week 4) was −22.4 (2.8) %; in assay [1] (Week 8), −21.0 (3.2) %; in assay [1] (Week 12), −23.3 (3.2) %; in assay [1] (Week 16), −15.7 (3.5) %; in assay [1] (Week 24), −21.4 (4.2) %. Further, the “Calculated LDL-C LS mean (SE), Change from Baseline” value in assay [1] (Week 4) is −25.2 (3.0); in assay [1] (Week 8), −22.9 (3.3); in assay [1] (Week 12) it was −26.3 (3.5); in assay [1] (Week 16) it was −18.7 (3.8); in assay [1] (Week 24), −23.1 (4.5). For the same compound, the “Calculated LDL-C LS mean (SE), Value (mg/dL)” value is 83.5 (3.0) mg/dL in assay [1] (Week 4); 85.8 (3.3) mg/dL in assay [1] (Week 8); 82.4 (3.5) mg/dL in assay [1] (Week 12); 90.0 (3.8) mg/dL in assay [1] (Week 16); 85.6 (4.5) mg/dL in assay [1] (Week 24). For the same compound, in assay [1] (Week 24, calculated LDL-C, across atorvastatin 20 mg and 40 mg regimens), the “patients achieving the more stringent LDL-C goal of <70 mg/dL” value is 42.2%. For the same compound, the “reduced LDL-C levels by” value in assay [1] (atorvastatin 40 mg regimen, week 24, add-on mAb316P, add-on ezetimibe, doubling of atorvastatin dose or switch to rosuvastatin 40 mg) is on record as 21.4%. Further, the “Proportion of Patients Reaching LDL-C goal (%)” value in assay [1] (week 24, calculated LDL-C <70 mg/dL very high risk or <100 mg/dL high risk, combined estimate) was 62.2%. The “reduction in LDL-C levels when switching from atorvastatin 40 mg per day to rosuvastatin 40 mg per day” value in assay [2] is reported as about 8%.

(Values after patent US20150231236A1, “METHODS FOR TREATING PATIENTS WITH HYPERCHOLESTEROLEMIA THAT IS NOT ADEQUATELY CONTROLLED BY MODERATE-DOSE STATIN THERAPY” (Regeneron Pharmaceuticals, Inc., priority 2014, published 2015).)
